Results published in patent US10188633B2, “Identification of small molecules that facilitate therapeutic exon skipping” (The Regents of the University of California, priority 2011, dated 2019).

Columns and labels:
[1] = system: human DMD exon 50 GFP based reporter; assay: BioMol high throughput screen in Ex50-GFP reporter C2C12 myoblasts, with or without AON6; assay type: cell-based, mouse
mdx mice [2] = assay: Intramuscular PMOE23 with systemic dantrolene in mdx mice, dystrophin in tibialis anterior; assay type: in vivo, mouse
Protocol: One dose of either 10 ug or 2 ug of morpholino M23D in 25 ul PBS was injected into the tibialis anterior (TA) of 6 week old mdx mice on day 1 (n=3 per group). Dantrolene was administered by intraperitoneal injection at either 10 or 20 mg/kg/day for 9 days in a volume of 200 ul every 12 hours. Dantrolene was solubilized in 20% DMSO in normal saline. TA muscle was harvested on Day 11 and immediately frozen in Optimal Cutting Temperature compound (O.C.T.) embedding medium. Serial sections along the TA with intervals 800 microns apart were processed to perform assessments within the TA region with maximal AO delivery. […] (A) For Western blot analysis, half of each of the 4 middle intervals were pooled. Dystrophin protein was detected using MANDYS8 (exons 31 and 32) antibody. Control C57 was loaded at 5 ug/well, and 50 ug/well was loaded for other mdx samples. (B) Western blot was quantified by densitometry and plotted as arbitrary densitometry units normalized to vinculin loading control. […] (D) Data from whole muscle cross sections from C were quantified as total fluorescence, without inclusion of edges with artifactual staining, normalized to surface area scanned. […] Images were analyzed using Ariol SL-50 (Applied Imaging Corp., San Jose, Calif.). […]
Total fluorescence was quantitated from TA sections by scanning four entire cross sections from each of the mice for each experimental group.

DMD patients = settings: oral, after 2 years of daily treatment; cited from earlier work
mdx mice [3] = settings: mouse, in vivo; cited from earlier work

O=C1CN(/N=C/c2ccc(-c3ccc([N+](=O)[O-])cc3)o2)C(=O)N1 [DANTROLENE]
Average Fluorescence (n = 3) [1]: 18.20
Fluorescence Plate 1 [1]: 16.32
Fluorescence Plate 2 [1]: 11.76
Fluorescence Plate 3 [1]: 26.51
activity in the −AO screen [1]: indistinguishable from the DMSO controls
exon skipping activity in the screen +AO [1]: enhanced exon skipping activity
induced levels of dystrophin (Western blot) (mdx mice [2]; dantrolene 10 or 20 mg/kg/day IP with 2 ug PMOE23 IM): about 20 % of C57 dystrophin levels
dystrophin protein rescue with and without PMOE23 (mdx mice [2]; dantrolene IP, immunofluorescence and Western blot): only rescued protein expression in the presence of PMOE23
creatine kinase levels (DMD patients): slightly reduced
manual muscle test (DMD patients): modest improvement
side effects (DMD patients): without substantial harmful side effects
CK values (mdx mice [3]): lower CK values
